Test results as given in US20090227521A1, “USE OF COMPOUNDS IN THE TREATMENT OF ISCHEMIA AND NEURODEGENERATION” (priority 2006, published 2009).
Several values for one entry are separate records, joined by “and”; a condition that tells them apart may be missing. Equal values may be shown once. *: point of attachment. Cbz = O=C(OCc1ccccc1)*

Experiments:
HeLa cells = test: Nuclear localization of proteasomes in starved HeLa cells (immunohistochemistry); format: cell-based, human; details: starvation, 100 micro-M
Source text: (§1) Cells and Culture Conditions. EL-4 is a Benzpyrene-induced lymphoma cell line derived from the C57BI/6 mouse strain. EL-4.wt and EL-4.TPPII^i are EL-4 cells transfected with the pSUPER vector (Brummelkamp, T R, Bernards, R, Agami, R. A system for stable expression of short interfering RNAs in mammalian cells. Science 2002; 296:550-3), empty versus containing the siRNA directed against TPPII. HeLa cells are human cervical carcinoma cells. For induction of stress, cells were starved by growth in 50%-75% Phosphate Buffered Saline (PBS) or gamma-irradiated 250-2000 Rad's; and incubated at 37° C. and 5.3% CO2. Our flow cytometric data represent live cells as determined by flow cytometric gating with Propidium Iodide (PI). For generation of stable transfectants, 5×10^6 cells were washed in PBS, then resuspended into 500 micro-I of PBS in a Bio-Rad gene-pulser and pulsed with 10 micro-g DNA and 250 V at 960 micro-F; and selected by resistance to G418. UbGV76-GFP is a ubiquitin-fusion construct that creates a rapidly degraded GFP molecule for monitoring 26S proteasome activity in live cells through flow cytometry (Dantuma, N. P, Lindsten, K., Glas, R., Jellne, M., and Masucci, M. G. 2000. Short-lived green fluorescent proteins for quantifying ubiquitin/proteasome-dependent proteolysis in living cells. Nat. Biotechnol. 18:538-43). […]

EL-4.Ub-R-GFP-Q112 cells = test: Ub-R-GFP-Q112 poly-Glutamine reporter substrate degradation in stably transfected EL-4 cells (flow cytometry); format: cell-based, mouse; details: for Ub-R-GFP-Q112 substrate level: up to 72 hours, serum-free AIM-V medium
Source text: Cells and Culture Conditions. EL-4 is a Benzpyrene-induced lymphoma cell line derived from the C57BI/6 mouse strain. EL-4.wt and EL-4.TPPII^i are EL-4 cells transfected with the pSUPER vector (Brummelkamp, T R, Bernards, R, Agami, R. A system for stable expression of short interfering RNAs in mammalian cells. Science 2002; 296:550-3), empty versus containing the siRNA directed against TPPII. HeLa cells are human cervical carcinoma cells. For induction of stress, cells were starved by growth in 50%-75% Phosphate Buffered Saline (PBS) or gamma-irradiated 250-2000 Rad's; and incubated at 37° C. and 5.3% CO2. Our flow cytometric data represent live cells as determined by flow cytometric gating with Propidium Iodide (PI). For generation of stable transfectants, 5×10^6 cells were washed in PBS, then resuspended into 500 micro-I of PBS in a Bio-Rad gene-pulser and pulsed with 10 micro-g DNA and 250 V at 960 micro-F; and selected by resistance to G418. UbGV76-GFP is a ubiquitin-fusion construct that creates a rapidly degraded GFP molecule for monitoring 26S proteasome activity in live cells through flow cytometry (Dantuma, N. P, Lindsten, K., Glas, R., Jellne, M., and Masucci, M. G. 2000. Short-lived green fluorescent proteins for quantifying ubiquitin/proteasome-dependent proteolysis in living cells. Nat. Biotechnol. 18:538-43). Ub-R-GFP is a similar vector that also encodes a highly unstable GFP molecule degraded through the ubiquitin-proteasome pathway. Ub-R-GFP-Q112 is the same substrate but contains an extended C-terminal with 112 glutamines (Verhoef, L. G., Lindsten, K., Masucci, M. G. and Dantuma, N. P. 2002. Aggregate formation inhibits proteasomal degradation of polyglutamine proteins. Hum Mol. Genet. 11:2689-700).
Flow Cytometry. Fluorescence was quantified by a FACScalibur. Flow cytometric cell sorting of live cells was performed by incubation of cells for 5 minutes with 2 micro-g/ml of Propidium Iodide (PI) and subsequent sorting into PI^+ and PI^− populations with a FACSvantage. […]

EL-4 cells [1] = test: Nuclear localization of proteasomes in starved EL-4 cells (immunohistochemistry); format: cell-based, mouse; details: starvation, 100 micro-M
Source text: as §1

EL-4 cells [2] = test: Western blotting of TPPII, proteasome alpha-3 and p53 in stressed EL-4 cells; format: cell-based, mouse
Source text: as §1, with “18:538-43). Ub-R-GFP is a similar vector that also encodes a highly unstable GFP molecule degraded through the ubiquitin-proteasome pathway.” for “18:538-43).”
Protein Purification, Peptidase Assays and Analysis of DNA Fragmentation. […] Cleavage activity was measured by emission at 460 nm in a LS50B Luminescence Spectrometer (Perkin Elmer, Boston, Mass.). […]
Antibodies and Antisera. The following molecules were detected by the antibodies specified: GFP by rabbit anti-GFP serum (Molecular Probes Europe, Breda, The Netherlands); 19S proteasomal complexes by anti-Rpt6 (19S base ATPase subunit), 20S proteasomal complexes by (Affinity, Exeter, UK); For detection of TPPII we used chicken anti-TPPII serum (Immunsystem, Uppsala, Sweden). […]

HeLa.UbGV76-GFP cells = test: GFP reporter substrate fluorescence in HeLa.UbGV76-GFP cells (flow cytometry); format: cell-based, human; details: live cells, proteasomal inhibitor treatment
Source text: as §1
(§2) Flow Cytometry. Fluorescence was quantified by a FACScalibur. […]

EL-4.Ub-R-GFP cells = test: GFP reporter substrate fluorescence in EL-4.Ub-R-GFP cells (flow cytometry); format: cell-based, mouse; details: live cells, proteasomal inhibitor treatment
Source text: as §1, §2

Subtilisin = details: bacterial homologue of eukaryotic TPP II; cited from earlier work
TPP II = molecular target: T1, TPP II (Mus musculus, UniProt Q64514); test: Inhibition of cleavage of AAF-AMC by enriched TPP II (peptidase assay); format: biochemical; details: for cleavage of AAF-AMC, mean: mean of three
T1 construct: 1 ug of high molecular weight protein was used as enzyme in peptidase assays; endogenous in cells
Protocol: It is not necessary to achieve a particularly high level of purification, and conventional simple techniques can be used to obtain TPP II of sufficient quality to use in a screening method. In one non-limiting example of purification of TPP II, 100×10^6 cells (such as EL-4 cells) were sedimented and lysed by vortexing in glass beads and homogenisation buffer (50 mM Tris Base pH 7.5, 250 mM Sucrose, 5 mM MgCl2, 1 mM DTT). Cellular lysates were subjected to differential centrifugation; first the cellular homogenate was centrifuged at 14,000 rpm for 15 min, and then the supernatant was transferred to ultra-centrifugation tubes. Next the sample was ultra-centrifugated at 100,000×g for 1 hour, and the supernatant (denoted as cytosol in most biochemical literature) was subjected to 100,000×g centrifugation for 5 hours, which sedimented high molecular weight cytosolic proteins/protein complexes. The resulting pellet dissolved in 50 mM Tris Base pH 7.5, 30% Glycerol, 5 mM MgCl2, and 1 mM DTT, and 1 ug of high molecular weight protein was used as enzyme in peptidase assays.
It is possible to test the activity of TPP II using for example the substrate AAF-AMC (Sigma, St. Louis, Mo.). This may for example be used at 100 uM concentration in 100 ul of test buffer composed of 50 mM Tri Base pH 7.5, 5 mM MgCl2 and 1 mM DTT. It is possible to stop reactions using dilution with 900 ul 1% SDS solution. Cleavage activity may be measured for example by emission at 460 nm in a LS50B Luminescence Spectrometer (Perkin Elmer, Boston, Mass.).
Protein Purification, Peptidase Assays and Analysis of DNA Fragmentation. 100×10^6 cells were sedimented and lysed by vortexing in glass beads and homogenisation buffer (50 mM Tris Base pH 7.5, 250 mM Sucrose, 5 mM MgCl2, 1 mM DTT). Cellular lysates were submitted to differential centrifugation where a supernatant from a 1 hour centrifugation at 100,000×g (cytosol) was submitted to 100,000×g centrifugation for 3-5 hours, which sedimented high molecular weight cytosolic proteins/protein complexes. The resulting pellet dissolved in 50 mM Tris Base pH 7.5, 30% Glycerol, 5 mM MgCl2, and 1 mM DTT, and 1 micro-g of high molecular weight protein was used as enzyme in peptidase assays or in Western blotting for TPP II expression. To test the activity of TPP II we used the substrate AAF-AMC (Sigma, St. Louis, Mo.), at 100 micro-M concentration in 100 micro-I of test buffer composed of 50 mM Tri Base pH 7.5, 5 mM MgCl2 and 1 mM DTT. Cleavage activity was measured by emission at 460 nm in a LS50B Luminescence Spectrometer (Perkin Elmer, Boston, Mass.). For analysis of DNA fragmentation cells were seeded in 12-well plates at 10^6 cells/ml and exposed to 25 micro-M etoposide, a DNA topoisomerase II inhibitor commonly used as an apoptosis-inducing agent, to starvation (50% PBS). Cells were seeded at 10^6 cells/ml in 12-well plates and incubated for the indicated times, usually 18-24 hours. DNA from EL-4 control and adapted cells was purified by standard chloroform extraction, and 2.5 micro-g of DNA was loaded on 1.8% agarose gel for detection of DNA from apoptotic cells.
TPP II protein was enriched, and then a TPP II-preferred fluorogenic substrate AAF-AMC was used. 100×10^6 cells were sedimented and lysed by vortexing in glass beads and homogenisation buffer (50 mM Tris Base pH 7.5, 250 mM Sucrose, 5 mM MgCl2, 1 mM DTT). Cellular lysates were subjected to differential centrifugation; first the cellular homogenate was centrifuged at 14,000 rpm for 15 min, and then the supernatant was transferred to ultra-centrifugation tubes. Next the sample was ultra-centrifugated at 100,000×g for 1 hour, and the supernatant (denoted as cytosol in most biochemical literature) was subjected to 100,000×g centrifugation for 5 hours, which sedimented high molecular weight cytosolic proteins/protein complexes. […]

T1 sequence (Q64514 2-1262 limits assumed): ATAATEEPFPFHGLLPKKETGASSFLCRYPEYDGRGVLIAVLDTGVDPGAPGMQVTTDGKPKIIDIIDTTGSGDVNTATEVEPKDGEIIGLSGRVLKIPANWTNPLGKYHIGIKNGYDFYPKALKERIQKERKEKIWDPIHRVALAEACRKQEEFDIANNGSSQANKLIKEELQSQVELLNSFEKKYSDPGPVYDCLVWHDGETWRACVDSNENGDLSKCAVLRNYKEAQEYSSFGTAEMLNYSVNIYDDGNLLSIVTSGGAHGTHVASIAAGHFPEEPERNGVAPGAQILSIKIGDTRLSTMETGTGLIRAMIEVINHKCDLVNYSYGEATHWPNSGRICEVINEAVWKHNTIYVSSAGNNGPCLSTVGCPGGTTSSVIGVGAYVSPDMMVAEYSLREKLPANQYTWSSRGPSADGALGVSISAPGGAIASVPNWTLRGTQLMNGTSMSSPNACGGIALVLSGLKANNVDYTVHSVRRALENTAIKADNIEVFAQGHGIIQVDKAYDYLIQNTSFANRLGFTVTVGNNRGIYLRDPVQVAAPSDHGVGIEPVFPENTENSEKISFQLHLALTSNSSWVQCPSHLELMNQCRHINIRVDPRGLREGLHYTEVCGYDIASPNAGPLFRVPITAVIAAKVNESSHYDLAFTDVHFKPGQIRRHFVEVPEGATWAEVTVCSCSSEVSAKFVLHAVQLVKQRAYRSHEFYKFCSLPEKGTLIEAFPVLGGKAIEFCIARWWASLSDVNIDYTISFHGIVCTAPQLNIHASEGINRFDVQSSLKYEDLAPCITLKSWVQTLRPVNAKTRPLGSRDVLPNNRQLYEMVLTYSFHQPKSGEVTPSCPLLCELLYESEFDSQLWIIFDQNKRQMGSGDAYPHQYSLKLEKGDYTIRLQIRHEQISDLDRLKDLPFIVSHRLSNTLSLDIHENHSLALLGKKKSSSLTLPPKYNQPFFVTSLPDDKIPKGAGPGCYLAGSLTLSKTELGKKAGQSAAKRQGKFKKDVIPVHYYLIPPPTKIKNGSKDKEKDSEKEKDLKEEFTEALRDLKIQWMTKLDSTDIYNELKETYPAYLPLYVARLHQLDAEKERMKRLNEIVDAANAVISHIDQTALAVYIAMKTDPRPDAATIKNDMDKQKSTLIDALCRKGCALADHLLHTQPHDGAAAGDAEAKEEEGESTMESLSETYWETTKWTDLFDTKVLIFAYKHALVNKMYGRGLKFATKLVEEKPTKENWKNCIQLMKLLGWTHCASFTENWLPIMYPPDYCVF

Compound: CCCCNC(=O)[C@@H]1Cc2ccccc2N1C(=O)[C@@H](N)CC [Butabindide]
- nuclear localization of proteasomes (HeLa cells): inhibited nuclear localization of proteasomes
- Ub-R-GFP-Q112 substrate level (EL-4.Ub-R-GFP-Q112 cells; 100 micro-M): gradual decline
- nuclear localization of proteasomes (EL-4 cells [1]): inhibited nuclear localization of proteasomes
- stabilization of p53 (EL-4 cells [2]; gamma-irradiated (500 Rad) EL-4.wt cells, 100 micro-M from 2 hours before onset): prevent

Compound: CC(C)C[C@@H](/C=C/S(C)(=O)=O)NC(=O)[C@H](CC(C)C)NC(=O)[C@H](CC(C)C)NC(=O)Cc1cc(I)c(O)c([N+](=O)[O-])c1 [NLVS, 4-hydroxy-5-iodo-3-nitrophenylacetyl-Leu-Leu-Leu-vinyl sulphone]
- accumulation of Ub-R-GFP-Q112 substrate not degraded (EL-4.Ub-R-GFP-Q112 cells; treatment with NLVS): further increased accumulation
- steady state levels of GFP-fluorescence (HeLa.UbGV76-GFP cells): strong increase
- rapid TPPII down regulation during wortmannin treatment (EL-4 cells [2]; starved EL-4 cells, with 1 micro-M wortmannin): prevented
- steady state levels of GFP-fluorescence (EL-4.Ub-R-GFP cells): strong increase

Compound: Cbz-Gly-Leu-Ala-OH [Z-GLA-OH]
- inhibition of Subtilisin (Subtilisin): inhibit
- Ub-R-GFP-Q112 substrate level (EL-4.Ub-R-GFP-Q112 cells; 25-microM): gradual decline
- cleavage of AAF-AMC, single determination (TPP II; compound at 1 nM): 32.54 fluorometric units and 32.61 fluorometric units and 33.41 fluorometric units
- cleavage of AAF-AMC, mean (TPP II; compound at 1 nM): 32.85 fluorometric units
- cleavage of AAF-AMC, single determination (TPP II; compound at 10 nM): 21.74 fluorometric units and 21.93 fluorometric units and 24.44 fluorometric units
- cleavage of AAF-AMC, mean (TPP II; compound at 10 nM): 22.70 fluorometric units
- cleavage of AAF-AMC, single determination (TPP II; compound at 100 nM): 14.43 fluorometric units and 14.26 fluorometric units and 14.37 fluorometric units
- cleavage of AAF-AMC, mean (TPP II; compound at 100 nM): 14.35 fluorometric units
- cleavage of AAF-AMC, single determination (TPP II; compound at 1 uM): 11.43 fluorometric units and 11.9 fluorometric units and 11.46 fluorometric units
- cleavage of AAF-AMC, mean (TPP II; compound at 1 uM): 11.60 fluorometric units
- cleavage of AAF-AMC, single determination (TPP II; compound at 10 uM): 6.47 fluorometric units and 7.66 fluorometric units and 7.49 fluorometric units
- cleavage of AAF-AMC, mean (TPP II; compound at 10 uM): 7.21 fluorometric units
- cleavage of AAF-AMC, single determination (TPP II; compound at 100 uM, arbitrary but relative units, lower = more inhibition): 1.14 fluorometric units and 1.44 fluorometric units and 1.55 fluorometric units
- cleavage of AAF-AMC, mean (TPP II; compound at 100 uM): 1.38 fluorometric units
- TPPII expression (EL-4 cells [2]; gamma-irradiated (500 Rad) EL-4.wt cells, 25 micro-M): strong reduction
